Source: publication PMC4336569 (European journal of medicinal chemistry, 2014)
“Also recorded” adds a separate entry of the source.

Legend:
MOR [1] = test: Functional GPI; format: biochemical, guinea pig
DOR [2] = molecular target: DOR (Rattus norvegicus, UniProt P33533); test: Opioid receptor binding assay, [3H]DSLET displacement
hNK1R [3] = molecular target: T1, hNK1R (Homo sapiens, UniProt P25103); test: hNK1/CHO cell membrane radioligand binding assay
MOR [4] = molecular target: MOR (Rattus norvegicus, UniProt P33535); test: Opioid receptor binding assay, [3H]DAMGO displacement; details: vs 4 (Gly4 replaced by β-Ala)
DOR [5] = molecular target: DOR (Mus musculus, UniProt P32300); test: Functional mouse vas deferens; format: biochemical; details: from 22 to 33, MVD assay
naïve rats = test: Tail-flick test; details: for duration of antinociceptive effect: after intrathecal administration, data not shown; for effect in tail-flick test: i.t., 30 min after administration; for effect in tail-flick test / toxic effect / Response (ED50) with 95% confidence limits, Tail-flick: naïve rats; for antinociceptive effect in acute pain: 1 nmol i.t.; for toxic effect: 9.5 nmol i.t.; for Response (ED50) with 95% confidence limits, Tail-flick: acute pain
CCI-exposed rats [6] = test: von Frey test; details: for Response (ED50) with 95% confidence limits, von Frey: neuropathic pain
mice [7] = test: Tail-flick test
CCI-exposed rats [8] = test: Cold plate test; details: for Response (ED50) with 95% confidence limits, Cold plate: neuropathic pain
mice [9] = details: 3.8 μmol/kg i.v., previous study; cited from earlier work
CCI-exposed rats [10] = test: Cross tolerance with morphine in neuropathic pain model; format: in vivo, rat; details: for cross tolerance with morphine: single dose of morphine 3.5 nmol on day 13 after repeated hybrid 1 nmol i.t.
CCI-exposed rats [11] = test: Tolerance development in neuropathic pain model; format: in vivo, rat; details: von Frey and cold plate, repeated i.t. 1 nmol
hNK1R [12] = molecular target: T1, hNK1R; test: Functional NK1R assay; format: cell-based; details: compared to lead compound 4

T1 sequence (P25103 whole entry): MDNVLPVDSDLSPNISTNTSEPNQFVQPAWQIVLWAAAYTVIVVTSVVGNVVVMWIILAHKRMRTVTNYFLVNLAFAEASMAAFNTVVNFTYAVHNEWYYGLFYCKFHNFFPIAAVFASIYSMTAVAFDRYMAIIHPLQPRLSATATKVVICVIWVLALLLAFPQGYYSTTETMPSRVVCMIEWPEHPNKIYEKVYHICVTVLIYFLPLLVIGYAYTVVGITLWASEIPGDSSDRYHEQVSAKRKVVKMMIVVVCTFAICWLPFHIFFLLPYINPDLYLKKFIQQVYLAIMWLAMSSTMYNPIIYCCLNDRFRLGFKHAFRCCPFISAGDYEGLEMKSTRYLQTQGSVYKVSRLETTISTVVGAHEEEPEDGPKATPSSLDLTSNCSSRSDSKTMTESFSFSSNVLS
DOR (Rattus norvegicus, UniProt P33533), sequence (P33533 whole entry): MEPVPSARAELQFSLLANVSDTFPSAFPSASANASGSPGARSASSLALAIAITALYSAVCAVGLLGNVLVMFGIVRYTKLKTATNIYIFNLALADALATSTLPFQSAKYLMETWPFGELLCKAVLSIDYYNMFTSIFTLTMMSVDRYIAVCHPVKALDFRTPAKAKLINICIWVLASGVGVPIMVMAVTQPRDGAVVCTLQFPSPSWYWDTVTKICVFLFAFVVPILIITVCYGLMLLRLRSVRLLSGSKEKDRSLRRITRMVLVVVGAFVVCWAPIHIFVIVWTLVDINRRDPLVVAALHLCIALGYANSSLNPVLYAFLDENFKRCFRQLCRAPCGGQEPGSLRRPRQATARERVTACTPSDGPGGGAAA
MOR (Rattus norvegicus, UniProt P33535), sequence (P33535 whole entry): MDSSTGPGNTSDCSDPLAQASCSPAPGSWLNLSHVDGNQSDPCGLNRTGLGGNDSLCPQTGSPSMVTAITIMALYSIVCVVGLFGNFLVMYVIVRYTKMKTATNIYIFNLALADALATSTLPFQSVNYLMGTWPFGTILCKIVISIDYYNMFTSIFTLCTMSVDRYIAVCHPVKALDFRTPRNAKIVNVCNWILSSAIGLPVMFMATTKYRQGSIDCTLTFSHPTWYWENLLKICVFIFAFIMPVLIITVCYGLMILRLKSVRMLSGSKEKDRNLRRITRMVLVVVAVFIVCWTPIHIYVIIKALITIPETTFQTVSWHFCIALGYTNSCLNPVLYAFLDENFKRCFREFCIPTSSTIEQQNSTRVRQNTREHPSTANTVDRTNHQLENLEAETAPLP
DOR (Mus musculus, UniProt P32300), sequence (P32300 whole entry): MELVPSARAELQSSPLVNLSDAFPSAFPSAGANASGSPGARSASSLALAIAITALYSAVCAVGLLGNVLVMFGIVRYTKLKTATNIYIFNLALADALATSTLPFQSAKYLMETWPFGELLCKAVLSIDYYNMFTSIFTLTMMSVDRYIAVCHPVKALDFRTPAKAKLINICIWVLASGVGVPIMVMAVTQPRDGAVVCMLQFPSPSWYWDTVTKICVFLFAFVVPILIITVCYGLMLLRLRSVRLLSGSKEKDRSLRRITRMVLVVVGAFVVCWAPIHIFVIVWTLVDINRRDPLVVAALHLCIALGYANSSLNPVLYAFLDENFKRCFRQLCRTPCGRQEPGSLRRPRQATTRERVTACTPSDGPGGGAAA

Cc1cc(O)cc(C)c1C[C@H](N)C(=O)N[C@H](CCCNC(=N)N)C(=O)N[C@H]1Cc2ccccc2CN(CC(=O)N(Cc2cc(C(F)(F)F)cc(C(F)(F)F)c2)CC(C)C)C1=O [Compound 27, H-Dmt-D-Arg-Aba-Gly-NiBu-3’,5’-(CF3)2-Bn]
IC50 (MOR [1]; read-out: GPI (IC50 nM), representative of MOR activation): 19.7 nM

Cc1cc(O)cc(C)c1C[C@H](N)C(=O)N[C@H](CCCNC(=N)N)C(=O)N[C@H]1Cc2ccccc2CN(CCC(=O)N(C)Cc2cc(C(F)(F)F)cc(C(F)(F)F)c2)C1=O [Compound 21, H-Dmt-D-Arg-Aba-β-Ala-NMe-3’,5’-(CF3)2-Bn]
improvement of DOR binding (DOR [2]; vs 4 (Gly4 replaced by β-Ala)): 5 fold | loss in NK1R binding (hNK1R [3]; vs 4): 120 fold | improvement of MOR binding (MOR [4]): 5 fold

Cc1cc(O)cc(C)c1C[C@H](N)C(=O)N[C@H](CCCNC(=N)N)C(=O)N[C@H]1Cc2ccccc2CN(CCC(N)=O)C1=O [Compound 33, H-Dmt-D-Arg-Aba-β-Ala-NH2]
shift in DOR potency (DOR [5]): 10 fold | duration of antinociceptive effect (naïve rats): 2 h | effect in tail-flick test (naïve rats): increase the nociceptive threshold | toxic effect (CCI-exposed rats [6]; 1 nmol i.t., CCI rats): toxic effect | antinociceptive response (mice [7]; 1.21 μmol/kg i.v., mice): largely exceeded that of morphine

Cc1cc(O)cc(C)c1C[C@H](N)C(=O)N[C@H](CCCNC(=N)N)C(=O)N[C@H]1Cc2ccccc2CN(CC(N)=O)C1=O [Compound 7, H-Dmt-D-Arg-Aba-Gly-NH2]
effect in tail-flick test (naïve rats): increase the nociceptive threshold | toxic effect (CCI-exposed rats [6]; 1 nmol i.t., CCI rats): toxic effect

CC(=O)N[C@H]1Cc2ccccc2CN(CC(=O)N(C)Cc2cc(C(F)(F)F)cc(C(F)(F)F)c2)C1=O [Compound 6, Ac-Aba-Gly-NMe-3’,5’-(CF3)2-Bn]
effect on hyperalgesia (CCI-exposed rats [8]; i.t., day 7 after CCI): more potent in antagonizing hyperalgesia than hybrid 4 and approximately similar to 22 | effect in tail-flick test (naïve rats): very weak | antiallodynic activity (CCI-exposed rats [6]; i.t., day 7 after CCI): significantly more potent than the opioid parent compounds | activity in tail-flick test after i.v. administration (mice [7]; doses up to 1.21 μmol/kg i.v., not shown): did not show any activity at all; also recorded: not active at all

Cc1cc(O)cc(C)c1C[C@H](N)C(=O)N[C@H](CCCNC(=N)N)C(=O)N[C@H]1Cc2ccccc2CN(CC(=O)N(Cc2ccccc2)CC(C)C)C1=O [Compound 28, H-Dmt-D-Arg-Aba-Gly-NiBu-Bn]
GPI agonist character (MOR [1]; GPI): P.A ^e

Cc1cc(O)cc(C)c1C[C@H](N)C(=O)N[C@H](CCCNC(=N)N)C(=O)N[C@H]1Cc2ccccc2CN(CC(=O)N(C)Cc2cc(C(F)(F)F)cc(C(F)(F)F)c2)C1=O [Compound 4, H-Dmt-D-Arg-Aba-Gly-NMe-3’,5’-(CF3)2-Bn]
Response (ED50) with 95% confidence limits, Cold plate (CCI-exposed rats [8]; day 7 after CCI): 1.14 (0.74 - 1.77) nmol i.t. | antinociceptive potency relative to i.p. administered morphine (mice [9]): 3.7 times | antinociceptive effect in acute pain (naïve rats): 30 % MPE | toxic effect (naïve rats): seizures and death of animals | Response (ED50) with 95% confidence limits, Tail-flick (naïve rats): 1.66 (1.11-2.51) nmol i.t. | effect in tail-flick test (naïve rats): increase the nociceptive threshold | toxic effect (CCI-exposed rats [6]; 1 nmol i.t., CCI rats): not observed | attenuation of allodynia, von Frey (CCI-exposed rats [6]; 1 nmol i.t., day 7 after CCI): 60 % MPE | toxic effect (CCI-exposed rats [6]; highest investigated dose 9.5 nmol i.t., CCI rats, not shown): toxic effect | Response (ED50) with 95% confidence limits, von Frey (CCI-exposed rats [6]; day 7 after CCI): 1.05 (0.65 - 1.69) nmol i.t. | cross tolerance with morphine (CCI-exposed rats [10]): cross tolerance

Cc1cc(O)cc(C)c1C[C@H](N)C(=O)N[C@H](CCCNC(=N)N)C(=O)N[C@H]1Cc2ccccc2CN(CCC(=O)N(C)Cc2ccccc2)C1=O [Compound 22, H-Dmt-D-Arg-Aba-β-Ala-NMe-Bn]
DOR binding increase (DOR [2]; vs 21): 10 factor | toxicity (CCI-exposed rats [8]; 10 nmol i.t., not shown): lacking toxicity | Response (ED50) with 95% confidence limits, Cold plate (CCI-exposed rats [8]; day 7 after CCI): 0.34 (0.25 - 0.46) nmol i.t. | improvement of NK1R binding affinity (hNK1R [3]; vs 21): approximately 4 times | antinociceptive effect by area under curve (CCI-exposed rats [11]): most potent antinociceptive effect | loss in antagonism potency (hNK1R [12]): 1.5 log unit | improvement of in vitro agonism at MOR (MOR [1]; vs 21): 6 fold | antinociceptive effect in acute pain (naïve rats): 30 % MPE | toxic effect (naïve rats): did not induce a toxic effect | Response (ED50) with 95% confidence limits, Tail-flick (naïve rats): 2.78 (1.80-4.30) nmol i.t. | duration of antinociceptive effect (naïve rats): 2 h | effect in tail-flick test (naïve rats): increase the nociceptive threshold | toxic effect (CCI-exposed rats [6]; 1 nmol i.t., CCI rats): not observed | attenuation of allodynia, von Frey (CCI-exposed rats [6]; 1 nmol i.t., day 7 after CCI): 80 % MPE | toxic signs (CCI-exposed rats [6]; i.t., CCI rats, doses up to 11 nmol): lack of toxic signs | Response (ED50) with 95% confidence limits, von Frey (CCI-exposed rats [6]; day 7 after CCI): 0.24 (0.18 - 0.32) nmol i.t. | effect of a single dose in rats rendered tolerant to morphine (CCI-exposed rats [10]; 22 1 nmol i.t. after repeated morphine 3.5 nmol): not effective | cross tolerance with morphine (CCI-exposed rats [10]): cross tolerance
